According to patent US7326689B2, “Pseudomycins useful against plant diseases” (Eli Lilly and Company, priority 2000, dated 2008):

How the values were obtained:
Assay in all cases: Antifungal growth assay in potato dextrose broth, 24-well
Assay type in all cases: cell-based
Design in all cases: key: NI, no inhibition; p (partial), at least 50% inhibited
[1] = system: Alternaria helianthi; settings: 2x assays
Experimental: (§1) Fungi to be tested were propagated on potato dextrose agar (PDA) plates at room temperature. Stock solutions of pseudomycins and depsipeptide were suspended in dimethylsulfoxide (DMSO) (Sigma) at 5 mg/ml and stored at −20C. Serial dilutions of compounds were done the day of the experiment. All serial dilutions were made in DMSO. […] These are noted in the raw data section.
(§2) Assays were performed in 24-well cell culture clusters (Costar 3524), with 990 ul potato dextrose broth (PDB, Difco) and 10 ul of the compound to be tested in each well. Initial concentrations tested were 50-1.56 ug/ml (final concentration of pseudomycin). Actual concentrations of pseudomycins tested were 50, 25, 12.5, 6.25, 3.12 and 1.56 ug/ml. Each well was inoculated with the appropriate fungus. Unless noted, the fungal inoculum consisted of an ˜4 mm^2 piece of PDA with fungal mycelium. The exceptions were as follows. Ustilago maydis: this fungus grows much like a yeast on PDA, and cells were scraped from the PDA stock plate, resuspended in PDB and 10 ul inoculum added to each well. Monilinia sp.: this fungal mycelium grows as a very loose sheet on top of PDA and would not adhere to agar blocks. Fungal mycelium was ground with a metal rod in 500 ul PDB and 10 ul inoculum was added to each well. Mycosphaeella fijiensis, Septoria passerinii, Septoria triticii: these fungi all grow very slowly and the results were difficult to score if a small piece of agar with fungal mycelium on it was used as an inoculum. For these fungi, the mycelium was ground with a metal rod in 500 ul PDB and 10 ul inoculum was added to each well.
(§3) Wells were scored for fungal growth at two days and five days. Some slow growing fungi were scored at later days for growth because assessment was not possible at two or five days. Growth was scored by comparison to a control consisting of fungus inoculated into 990 ul potato dextrose broth and 10 ul of DMSO (Dimethylsulfoxide). An additional control consisting of fungal inoculum in PDB only was performed to ensure that the DMSO was not inhibitory to fungal growth.
(§4) For assays that were repeated, new stock solutions were made from a second shipment of pseudomycins. Note that pseudomycin B′ and depsipeptide stock solutions were remade from first shipment materials because these were not included in the second shipment. […] Actual concentrations of pseudomycins tested were 2, 1, 0.5, 0.25, 0.125 and 0.0625 ug/ml. A-PO4 and A-FB=pseudomycin A phosphate salt and free base respectively.
(§5) Table 2: Two day results—concentration indicated is lowest level of compound (ug /ml) that results is no growth. NI, no inhibition; p (partial), at least 50% inhibited; -, not determined. If number of assays was greater than one, number of assays performed on the fungus is noted in parentheses. For several slow-growing fungi, days elapsed before observation (if different than two) are noted.
(§6) Table 3: Five day results—concentration indicated is lowest level of compound (ug /ml) that results in no growth. NI, no inhibition; p (partial), at least 50% inhibited; -, not performed on the fungus is noted in parentheses. For several slow-growing fungi, days elapsed before observation (if different than five) are noted.

[2] = system: Aphanomyces sp.; settings: 2x assays
Experimental: as §1, §2, §3, §4, §5, §6

[3] = system: Botrytis alli; settings: 2x assays
Experimental: as §1, §2, §3, §4, §5, §6

[4] = system: Cochliobolus carbonum
Experimental: as §1, §2, §3, §4, §5, §6

[5] = system: Diplodia natalensis
Experimental: as §1, §2, §3, §4, §5, §6

[6] = system: Drechslera tritici-repentis
Experimental: as §1, §2, §3, §4, §5, §6

[7] = system: Fusarium avenaceum
Experimental: as §1, §2, §3, §4, §5, §6

[8] = system: Fusarium culmorum
Experimental: as §1, §2, §3, §4, §5, §6

[9] = system: Fusarium oxysporum cubense
Experimental: as §1, §2, §3, §4, §5, §6

[10] = system: Fusarium solani
Experimental: as §1, §2, §3, §4, §5, §6

[11] = system: Phoma chrysamthecola; settings: five day results
Experimental: as §1, §2, §3, §4, §5, §6

[12] = system: Phytophthora cactorum
Experimental: as §1, §2, §3, §4, §5, §6

[13] = system: Phytophthora cinnemani
Experimental: as §1, §2, §3, §4, §5, §6

[14] = system: Phytophthora parasitica
Experimental: as §1, §2, §3, §4, §5, §6

[15] = system: Phytophthora ultimum
Experimental: as §1, §2, §3, §4, §5, §6

[16] = system: Sclerotinia sclerotiorum; settings: 2x assays
Experimental: as §1, §2, §3, §4, §5, §6

[17] = system: Stagonospora nodorum
Experimental: as §1, §2, §3, §4, §5, §6

[18] = system: Tapesia acuformis; settings: 2x assays
Experimental: as §1, §2, §3, §4, §5, §6

[19] = system: Verticillium dahliae; settings: 2x assays
Experimental: as §1, §2, §3, §4, §5, §6

Row | Substance | lowest level of compound that results in no growth ([1]; five day results) | lowest level of compound that results in no growth ([1]; two day results) | lowest level of compound that results in no growth ([2]; five day results) | lowest level of compound that results in no growth ([2]; two day results) | lowest level of compound that results in no growth ([3]; five day results) | lowest level of compound that results in no growth ([3]; two day results) | lowest level of compound that results in no growth ([4]; five day results) | lowest level of compound that results in no growth ([4]; two day results) | lowest level of compound that results in no growth ([5]; five day results) | lowest level of compound that results in no growth ([5]; two day results) | lowest level of compound that results in no growth ([6]; five day results) | lowest level of compound that results in no growth ([6]; two day results, 2x assays) | lowest level of compound that results in no growth ([7]; five day results) | lowest level of compound that results in no growth ([7]; two day results) | lowest level of compound that results in no growth ([8]; five day results) | lowest level of compound that results in no growth ([8]; two day results) | lowest level of compound that results in no growth ([9]; five day results) | lowest level of compound that results in no growth ([9]; two day results) | lowest level of compound that results in no growth ([10]; five day results) | lowest level of compound that results in no growth ([10]; two day results) | further results
1 | pseudomycin A-FB | 25 µg/mL | 25 µg/mL | NI | NI | NI | NI | NI | NI | NI | NI | NI | 25 µg/mL | NI | NI | NI | NI | NI | NI | NI | p at 50 | lowest level of compound that results in no growth [11]: p at 50; lowest level of compound that results in no growth ([12]; five day results): NI; lowest level of compound that results in no growth ([12]; two day results): NI; lowest level of compound that results in no growth ([13]; five day results): NI; lowest level of compound that results in no growth ([13]; two day results): NI; lowest level of compound that results in no growth ([14]; five day results): NI; lowest level of compound that results in no growth ([14]; two day results): NI; lowest level of compound that results in no growth ([15]; five day results): NI; lowest level of compound that results in no growth ([15]; two day results): NI; lowest level of compound that results in no growth ([16]; five day results): NI; lowest level of compound that results in no growth ([16]; two day results): NI; lowest level of compound that results in no growth ([17]; five day results): NI; lowest level of compound that results in no growth ([17]; two day results): NI; lowest level of compound that results in no growth ([18]; five day results): NI; lowest level of compound that results in no growth ([18]; two day results): NI; lowest level of compound that results in no growth ([19]; five day results): p at 50; lowest level of compound that results in no growth ([19]; two day results): 50 µg/mL
2 | Pseudomycin B | 50 µg/mL | NI | 50 µg/mL | p at 50 | NI | NI | NI | NI | NI | NI | p at 50 | 50 µg/mL | NI | NI | NI | NI | NI | NI | NI | p at 50 | lowest level of compound that results in no growth [11]: p at 50; lowest level of compound that results in no growth ([12]; five day results): NI; lowest level of compound that results in no growth ([12]; two day results): NI; lowest level of compound that results in no growth ([13]; five day results): NI; lowest level of compound that results in no growth ([13]; two day results): NI; lowest level of compound that results in no growth ([14]; five day results): NI; lowest level of compound that results in no growth ([14]; two day results): NI; lowest level of compound that results in no growth ([15]; five day results): NI; lowest level of compound that results in no growth ([15]; two day results): NI; lowest level of compound that results in no growth ([16]; five day results): NI; lowest level of compound that results in no growth ([16]; two day results): p at 50; lowest level of compound that results in no growth ([17]; five day results): NI; lowest level of compound that results in no growth ([17]; two day results): NI; lowest level of compound that results in no growth ([18]; five day results): NI; lowest level of compound that results in no growth ([18]; two day results): NI; lowest level of compound that results in no growth ([19]; five day results): p at 50; lowest level of compound that results in no growth ([19]; two day results): 25 µg/mL
3 | Pseudomycin C′ | NI | p at 50 | p at 50 | 25 µg/mL | NI | NI | NI | NI | NI | NI | NI | 50 µg/mL | NI | NI | NI | NI | NI | NI | NI | NI | lowest level of compound that results in no growth [11]: NI; lowest level of compound that results in no growth ([12]; five day results): NI; lowest level of compound that results in no growth ([12]; two day results): NI; lowest level of compound that results in no growth ([13]; five day results): NI; lowest level of compound that results in no growth ([13]; two day results): NI; lowest level of compound that results in no growth ([14]; five day results): NI; lowest level of compound that results in no growth ([14]; two day results): NI; lowest level of compound that results in no growth ([15]; five day results): NI; lowest level of compound that results in no growth ([15]; two day results): NI; lowest level of compound that results in no growth ([16]; five day results): p at 50; lowest level of compound that results in no growth ([16]; two day results): 50 µg/mL; lowest level of compound that results in no growth ([17]; five day results): NI; lowest level of compound that results in no growth ([17]; two day results): NI; lowest level of compound that results in no growth ([18]; five day results): NI; lowest level of compound that results in no growth ([18]; two day results): NI; lowest level of compound that results in no growth ([19]; five day results): p at 50; lowest level of compound that results in no growth ([19]; two day results): p at 50
